Source: patent US20240270821A1, “GIP/GLP1/GCG TRI-RECEPTOR AGONISTS AND USES THEREOF” (priority 2023, published 2024)
Like-named read-outs stand apart in the source and are kept apart here. Starred links: 1 amine or outer side, 2 acyl side, 3 side chain; linkers in the order of their positions; H or OH if unused. Non-standard residues stand in square brackets, D forms with d. Residues, ends and D or L forms follow the SMILES beside them. Groups on a side chain read outwards from the residue. No end group written: not given here. *: point of attachment. C20 diacid = O=C(O)CCCCCCCCCCCCCCCCCCC(=O)*; C18 diacid = O=C(O)CCCCCCCCCCCCCCCCC(=O)*; Phe(4-CN) = N#Cc1ccc(C[C@H](N)C(=O)O)cc1; αMePhe(2-F) = C[C@](N)(Cc1ccccc1F)C(=O)O; γGlu = O=C(O)[C@H](CCC(=O)[*:2])N[*:1]; αMe4Pal = C[C@](N)(Cc1ccncc1)C(=O)O; αMeY = C[C@](N)(Cc1ccc(O)cc1)C(=O)O; αMeF = C[C@](N)(Cc1ccccc1)C(=O)O; 4Pal = N[C@@H](Cc1ccncc1)C(=O)O; αMeL = CC(C)C[C@](C)(N)C(=O)O; αMeS = C[C@](N)(CO)C(=O)O; Orn = NCCC[C@H](N)C(=O)O; AEEA = NCCOCCOCC(=O)O; Aib = CC(C)(N)C(=O)O

Columns and labels:
Type in all cases: cell-based
human GcgR = human GcgR (Homo sapiens, UniProt P47871); test: Functional cAMP activity in the presence of 1% HSA; details: read-out: cAMP Rel EC50, hGcgR
hGcgR = hGcgR (Homo sapiens, UniProt P47871); test: Functional cAMP activation in the presence of 0.1% casein (no HSA); details: read-out: Relative cAMP EC50, hGcgR;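 note: intracellular cAMP rise after 30 min at 37 °C, read by HTRF against a cAMP standard curve, scaled from buffer only (0%) to maximal control ligand response (100%)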
hGIPR [1] = target: T1, hGIPR (Homo sapiens, UniProt P48546); test: as above; details: read-out: Relative cAMP EC50, hGIPR;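 note: intracellular cAMP rise after 30 min at 37 °C read by HTRF against a standard curve, scaled between buffer alone (0%) and top control ligand concentration (100%), four-parameter fit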
T1 sequence (P48546 22-466): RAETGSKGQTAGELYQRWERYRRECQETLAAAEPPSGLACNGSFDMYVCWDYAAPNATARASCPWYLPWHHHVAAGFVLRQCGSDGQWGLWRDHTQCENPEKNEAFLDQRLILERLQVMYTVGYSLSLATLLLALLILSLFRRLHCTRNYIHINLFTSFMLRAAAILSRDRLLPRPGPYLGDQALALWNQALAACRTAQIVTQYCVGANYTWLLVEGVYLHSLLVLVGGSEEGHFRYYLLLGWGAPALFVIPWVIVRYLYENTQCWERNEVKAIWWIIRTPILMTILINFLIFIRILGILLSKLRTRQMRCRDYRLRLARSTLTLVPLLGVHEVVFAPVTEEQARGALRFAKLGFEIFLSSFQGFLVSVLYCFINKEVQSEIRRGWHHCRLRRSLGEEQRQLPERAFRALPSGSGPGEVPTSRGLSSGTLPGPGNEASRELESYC

hGLP-1R [2] = target: T2, hGLP-1R (Homo sapiens, UniProt P43220); test: as above; details: read-out: Relative cAMP EC50, hGLP-1R;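 note: intracellular cAMP rise after 30 min at 37 °C read by HTRF, normalized between buffer only (0%) and maximal control ligand (100%), four-parameter variable-slope fit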
hGLP-1R [3] = target: T2, hGLP-1R; test: Functional cAMP activity in the presence of 1% HSA; details: read-out: cAMP Rel EC50, hGLP-1R
hGIPR [4] = target: T1, hGIPR; test: Functional cAMP activity in the presence of 1% HSA; details: read-out: cAMP Rel EC50, hGIPR
[5] = 0.1% casein, no HSA, geometric mean
[6] = in the presence of 0.1% casein (no HSA), geometric mean

Sequence of hGcgR (P47871 26-477): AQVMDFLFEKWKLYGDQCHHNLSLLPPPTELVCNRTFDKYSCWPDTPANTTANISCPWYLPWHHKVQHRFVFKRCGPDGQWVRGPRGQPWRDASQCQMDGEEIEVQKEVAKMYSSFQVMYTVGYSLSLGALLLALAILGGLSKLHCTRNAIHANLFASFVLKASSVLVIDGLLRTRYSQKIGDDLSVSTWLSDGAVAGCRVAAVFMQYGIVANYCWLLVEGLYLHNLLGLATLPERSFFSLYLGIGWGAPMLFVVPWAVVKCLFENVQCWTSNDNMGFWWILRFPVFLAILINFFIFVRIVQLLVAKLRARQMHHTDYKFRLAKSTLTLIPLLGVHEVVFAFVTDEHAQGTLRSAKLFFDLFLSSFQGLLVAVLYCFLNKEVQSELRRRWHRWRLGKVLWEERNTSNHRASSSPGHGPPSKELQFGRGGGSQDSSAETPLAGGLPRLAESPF
Sequence of human GcgR (P47871 26-477): as above
T2 sequence (P43220 24-463): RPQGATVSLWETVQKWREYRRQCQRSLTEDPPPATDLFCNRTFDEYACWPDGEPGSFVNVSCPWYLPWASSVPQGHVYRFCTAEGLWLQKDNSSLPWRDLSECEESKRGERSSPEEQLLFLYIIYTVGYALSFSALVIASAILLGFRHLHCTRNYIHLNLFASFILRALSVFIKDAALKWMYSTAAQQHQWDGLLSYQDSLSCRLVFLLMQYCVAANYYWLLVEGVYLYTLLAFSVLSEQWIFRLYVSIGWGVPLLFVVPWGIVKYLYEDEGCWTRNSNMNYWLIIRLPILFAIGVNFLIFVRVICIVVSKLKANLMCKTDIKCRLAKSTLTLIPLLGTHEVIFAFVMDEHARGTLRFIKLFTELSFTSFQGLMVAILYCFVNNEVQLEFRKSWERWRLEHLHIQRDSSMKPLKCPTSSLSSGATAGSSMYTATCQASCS

| Compound | EC50 (human GcgR) [nM] | EC50 (hGcgR; [5]) [nM] | EC50 (hGIPR [1]; [5]) [nM] | EC50 (hGLP-1R [2]; [5]) [nM] | EC50 (hGLP-1R [3]) [nM] | EC50 (hGIPR [4]) [nM] | EC50 (hGcgR; [6]) [nM] | EC50 (hGIPR [1]; [6]) [nM] | EC50 (hGLP-1R [2]; [6]) [nM] | EC50 (hGcgR) [nM] | EC50 (hGIPR [1]) [nM] | EC50 (hGLP-1R [2]) [nM] |
| --- | --- | --- | --- | --- | --- | --- | --- | --- | --- | --- | --- | --- |
| H-Y[Aib]QGT[αMePhe(2-F)]TSD[4Pal][αMeS]I[αMeL]LD[Orn]K([AEEA-γGlu-C18 diacid])AQ[αMe4Pal]EFI[dE][αMeY]LIEGGPPS[Aib][Orn]PPP[Orn]GGGE-NH2 [Example 1197] | 288 | 1.88 | 0.00666 | 0.407 | 46.1 | 0.639 | – | – | – | – | – | – |
| CC[C@H](C)[C@H](NC(=O)[C@H](Cc1ccccc1)NC(=O)[C@H](C)NC(=O)[C@](C)(Cc1ccncc1)NC(=O)[C@H](CCC(N)=O)NC(=O)[C@H](C)NC(=O)[C@H](CCCCNC(=O)COCCOCCNC(=O)CC[C@H](NC(=O)CC[C@H](NC(=O)CCCCCCCCCCCCCCCCC(=O)O)C(=O)O)C(=O)O)NC(=O)[C@H](CCCN)NC(=O)[C@H](CC(=O)O)NC(=O)[C@H](CC(C)C)NC(=O)[C@](C)(CC(C)C)NC(=O)[C@H](CCC(N)=O)NC(=O)[C@H](CO)NC(=O)[C@H](Cc1ccncc1)NC(=O)[C@H](CC(=O)O)NC(=O)[C@H](CO)NC(=O)[C@@H](NC(=O)[C@H](Cc1ccccc1)NC(=O)[C@@H](NC(=O)CNC(=O)[C@H](CCC(N)=O)NC(=O)C(C)(C)NC(=O)[C@@H](N)Cc1ccc(O)cc1)[C@@H](C)O)[C@@H](C)O)C(=O)N[C@@H](CCC(=O)O)C(=O)N[C@@H](Cc1ccc(O)cc1)C(=O)N[C@@H](CC(C)C)C(=O)N[C@H](C(=O)N[C@@H](CCC(=O)O)C(=O)N[C@H](C)C(=O)NCC(=O)N1CCC[C@H]1C(=O)N[C@@H](CO)C(=O)N[C@@H](CO)C(=O)NCC(=O)N[C@@H](C)C(=O)N1CCC[C@H]1C(=O)N1CCC[C@H]1C(=O)N1CCC[C@H]1C(=O)N[C@@H](CCC(=O)O)C(=O)NCC(=O)N[C@@H](CO)C(N)=O)[C@@H](C)CC [Example 1020] | 478 | – | – | – | 146 | 27.3 | 5.87 | 0.309 | 2.29 | – | – | – |
| H-Y[Aib]QGT[αMePhe(2-F)]TSD[4Pal]SILLDKK([γGlu-γGlu-C18 diacid])AQ[Aib]AFIEYLEEGGPSSGAPPPSGGGE-NH2 [Example 619] | 819 | – | – | – | 94 | 6.78 | – | – | – | 6.34 | 0.0685 | 0.992 |
| H-Y[Aib]QGTFTSD[4Pal][αMeS]Q[αMeL]LD[Orn]K([dE-γGlu-C18 diacid])AQ[αMe4Pal]QFIQ[αMeY]LIAGGPSSGEPPPSGGGE-NH2 [Example 1133] | 216 | – | – | – | 47.8 | 4.24 | 2.95 | 0.0719 | 0.768 | – | – | – |
| H-Y[Aib]QGT[αMePhe(2-F)]TSDFSILLDKQAQK([AEEA-AEEA-γGlu-C20 diacid])AFIEYLLEGGPSSGEPPPSEG-NH2 [Example 346] | 4310 | – | – | – | 514 | 28.3 | 15.6 | 0.0738 | 1.17 | – | – | – |
| H-Y[Aib]QGTFTSDFS[Orn][αMeL]LDKK([AEEA-γGlu-C18 diacid])AQ[Aib]QFIEYLLAGGPSSGAPPPEGS-NH2 [Example 96] | 2150 | – | – | – | 836 | 49.3 | 14.1 | 0.456 | 3.92 | – | – | – |
| CC[C@H](C)[C@H](NC(=O)[C@H](Cc1ccccc1)NC(=O)[C@H](CCCN)NC(=O)C(C)(C)NC(=O)[C@H](CCC(N)=O)NC(=O)[C@H](C)NC(=O)[C@H](CCCCNC(=O)CC[C@H](NC(=O)CC[C@H](NC(=O)CCCCCCCCCCCCCCCCC(=O)O)C(=O)O)C(=O)O)NC(=O)[C@H](CCCN)NC(=O)[C@H](CC(=O)O)NC(=O)[C@H](CC(C)C)NC(=O)[C@](C)(CC(C)C)NC(=O)[C@@H](NC(=O)[C@](C)(CO)NC(=O)[C@H](Cc1ccncc1)NC(=O)[C@H](CC(=O)O)NC(=O)[C@H](CO)NC(=O)[C@@H](NC(=O)[C@](C)(Cc1ccccc1F)NC(=O)[C@@H](NC(=O)CNC(=O)[C@H](CCC(N)=O)NC(=O)C(C)(C)NC(=O)[C@@H](N)Cc1ccc(O)cc1)[C@@H](C)O)[C@@H](C)O)[C@@H](C)CC)C(=O)N[C@H](CCC(=O)O)C(=O)N[C@@](C)(Cc1ccc(O)cc1)C(=O)N[C@@H](CC(C)C)C(=O)N[C@@H](CC(C)C)C(=O)N[C@@H](CCC(=O)O)C(=O)NCC(=O)NCC(=O)N1CCC[C@H]1C(=O)N[C@@H](CO)C(=O)N[C@@H](CO)C(=O)NCC(=O)N[C@@H](CCC(=O)O)C(=O)N1CCC[C@H]1C(=O)N1CCC[C@H]1C(=O)N1CCC[C@H]1C(=O)N[C@@H](CO)C(N)=O [Example 374] (H-Y[Aib]QGT[αMePhe(2-F)]TSD[4Pal][αMeS]I[αMeL]LD[Orn]K([γGlu-γGlu-C18 diacid])AQ[Aib][Orn]FI[dE][αMeY]LLEGGPSSGEPPPS-NH2) | 65.4 | – | – | – | 24.5 | 2.28 | 0.908 | 0.0186 | 0.336 | – | – | – |
| H-Y[Aib]QGTFTSD[4Pal]SK[αMeL]LDKK([AEEA-γGlu-C18 diacid])AQ[Aib]AFIE[αMe4Pal]LIE[Aib]GPSSGAPPPSGS-NH2 [Example 914] | 983 | – | – | – | 91.7 | 5.94 | 10.6 | 0.0582 | 0.888 | – | – | – |
| H-Y[Aib]QGT[αMePhe(2-F)]TSD[4Pal][αMeS]I[αMeL]LD[Orn]K([γGlu-γGlu-C18 diacid])AQ[Aib][Orn]FI[dE][αMeY]LQEGGPSSGEPPPEGEEE-NH2 [Example 588] | 259 | – | – | – | 34.1 | 2.86 | – | – | – | 4.72 | 0.0777 | 0.613 |
| H-Y[Aib]QGTFTSDFS[Orn][αMeL]LDKK([AEEA-γGlu-C20 diacid])AQ[Aib]AFIEYLLE[Aib]GPSSGAPPPSGS-NH2 [Example 73] | 1530 | – | – | – | 810 | 57.9 | 4.58 | 0.114 | 2.44 | – | – | – |
| Y[Aib]QGT[αMeF]TSD[4Pal][αMeS]I[αMeL]LD[Orn]K([AEEA-γGlu-C18 diacid])AQ[αMe4Pal]EFI[dE][αMeY]LIEGGPSSGEPPPSGE-NH2 [Example 1165] | 358 | – | – | – | 87.7 | 1.36 | 2.68 | 0.0121 | 0.632 | – | – | – |
| H-Y[Aib]QGTFTSD[4Pal]SQ[αMeL]LDKK([γGlu-γGlu-C18 diacid])AQ[αMe4Pal]AFIEYLIE[Aib]GPSSGAPPPSGSEEE-NH2 [Example 900] | 885 | – | – | – | 666 | 17 | 4.74 | 0.173 | 3.99 | – | – | – |
| CC[C@H](C)[C@H](NC(=O)[C@H](Cc1ccccc1)NC(=O)[C@H](CCCN)NC(=O)C(C)(C)NC(=O)[C@H](CCC(N)=O)NC(=O)[C@H](C)NC(=O)[C@H](CCCCNC(=O)COCCOCCNC(=O)CC[C@H](NC(=O)CCCCCCCCCCCCCCCCC(=O)O)C(=O)O)NC(=O)[C@H](CCCN)NC(=O)[C@H](CC(=O)O)NC(=O)[C@H](CC(C)C)NC(=O)[C@](C)(CC(C)C)NC(=O)[C@H](CO)NC(=O)[C@](C)(CO)NC(=O)[C@H](Cc1ccc(O)cc1)NC(=O)[C@H](CC(=O)O)NC(=O)[C@H](CO)NC(=O)[C@@H](NC(=O)[C@](C)(Cc1ccccc1)NC(=O)[C@@H](NC(=O)CNC(=O)[C@H](CCC(N)=O)NC(=O)C(C)(C)NC(=O)[C@@H](N)Cc1ccc(O)cc1)[C@@H](C)O)[C@@H](C)O)C(=O)N[C@H](CCC(=O)O)C(=O)N[C@@](C)(Cc1ccc(O)cc1)C(=O)N[C@@H](CC(C)C)C(=O)N[C@@H](CC(C)C)C(=O)N[C@@H](CCC(=O)O)C(=O)NCC(=O)NCC(=O)N1CCC[C@H]1C(=O)N[C@@H](CO)C(=O)N[C@@H](CO)C(=O)NCC(=O)N[C@@H](CCC(=O)O)C(=O)N1CCC[C@H]1C(=O)N1CCC[C@H]1C(=O)N1CCC[C@H]1C(=O)N[C@@H](CCC(=O)O)C(N)=O [Example 389] (H-Y[Aib]QGT[αMeF]TSDY[αMeS]S[αMeL]LD[Orn]K([AEEA-γGlu-C18 diacid])AQ[Aib][Orn]FI[dE][αMeY]LLEGGPSSGEPPPE-NH2) | 889 | – | – | – | 18.9 | 18.3 | 4.03 | 0.0354 | 0.134 | – | – | – |
| H-Y[Aib]QGTFTSD[Phe(4-CN)]S[Orn][αMeL]LDKK([AEEA-γGlu-C18 diacid])AQ[Aib]AFIEYLLE[Aib]GPSSGAPPPSGS-NH2 [Example 191] | 344 | – | – | – | 230 | 47.4 | 2.11 | 0.422 | 2.48 | – | – | – |
| Y[Aib]QGT[αMePhe(2-F)]TSD[4Pal][αMeS]I[αMeL]LD[Orn][Orn]([AEEA-γGlu-C18 diacid])AQ[αMe4Pal]EFI[dE][αMeY]LVEGGPSSGAPPPSGS-NH2 [Example 1210] | 288 | 2.25 | 0.00704 | 0.375 | 38.1 | 0.635 | – | – | – | – | – | – |
